These results are taken from patent US20220089541A1, “Compounds for the Treatment of Kinase-Dependent Disorders” (Exelixis, Inc., priority 2019, published 2022).

One data set concerns the target T1, AXL (Homo sapiens, UniProt P30530).
T1 construct: host or cells: A-172 glioblastoma cells
T1 sequence (P30530 26-894): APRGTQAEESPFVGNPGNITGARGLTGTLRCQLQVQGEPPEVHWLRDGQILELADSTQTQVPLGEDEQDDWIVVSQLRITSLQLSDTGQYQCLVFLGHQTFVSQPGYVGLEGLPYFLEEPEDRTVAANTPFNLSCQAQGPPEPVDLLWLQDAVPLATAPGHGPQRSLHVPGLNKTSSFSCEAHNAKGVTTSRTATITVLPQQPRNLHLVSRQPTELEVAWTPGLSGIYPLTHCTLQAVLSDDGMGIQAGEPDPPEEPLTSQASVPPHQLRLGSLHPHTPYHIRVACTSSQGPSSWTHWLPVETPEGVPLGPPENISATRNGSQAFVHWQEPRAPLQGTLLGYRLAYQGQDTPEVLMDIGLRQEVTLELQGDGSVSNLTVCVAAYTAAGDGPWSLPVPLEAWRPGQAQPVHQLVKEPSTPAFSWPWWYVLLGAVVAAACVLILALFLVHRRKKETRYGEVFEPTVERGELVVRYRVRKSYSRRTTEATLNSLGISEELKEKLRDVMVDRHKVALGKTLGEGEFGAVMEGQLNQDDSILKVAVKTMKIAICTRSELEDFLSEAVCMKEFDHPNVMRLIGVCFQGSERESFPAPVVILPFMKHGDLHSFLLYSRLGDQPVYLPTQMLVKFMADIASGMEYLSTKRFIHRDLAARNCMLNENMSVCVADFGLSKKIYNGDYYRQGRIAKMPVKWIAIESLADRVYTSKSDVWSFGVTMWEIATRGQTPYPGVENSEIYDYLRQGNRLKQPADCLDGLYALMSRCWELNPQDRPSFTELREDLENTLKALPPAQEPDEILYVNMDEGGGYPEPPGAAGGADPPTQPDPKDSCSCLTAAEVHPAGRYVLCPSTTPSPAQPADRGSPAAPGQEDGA
In words: AXL autophosphorylation ELISA in A-172 cells. Type of data set: cell-based. Particulars: A-172 glioblastoma cells, Gas6-stimulated, phospho-AXL ELISA, 1 h compound incubation. On the procedure: Example A: AXL Autophosphorylation ELISA in A-172 Cells
A-172 glioblastoma cells (ATCC #CRL-1620) were seeded at 2.5×10^5 cells/well onto 24-well plates (Greiner #662165), in DMEM (Thermo Fisher #11995-040) containing 10% FBS (Thermo Fisher #26140-079), 1% MEM NEAA (Thermo Fisher #11140-050), 1% GlutaMax (Thermo Fisher #35050-061), and 1% Penicillin Streptomycin (Thermo Fisher #15140-122). A-172 cells were incubated at 37° C., 5% CO2 for 24 h and then starved for 24 h in serum-free medium. Test compounds were serially diluted to produce an 8-point dose curve in fresh serum-free medium to a final concentration of 0.3% DMSO (vehicle) and added to the cells and incubated for 1 h. Cells were then stimulated with 1 μg/mL recombinant human Gas6 (R&D Systems #885-GSB-500) for 15 min, washed with cold PBS, and immediately lysed with 150 μL of cold IX lysis buffer [20 mM Tris, 137 mM sodium chloride, 2 mM EDTA, 10% glycerol, 1% NP-40 alternative, 1 mM activated sodium orthovanadate, 1 mM PefaBloc SC (Sigma-Aldrich #11429868001), protease/phosphatase inhibitor tablet (Thermo Fisher #A32959)]. Lysates were collected and 100 μL/well added into the human phospho-AXL DuoSet IC ELISA (R&D Systems #DYC2228-2). Assay was performed according to manufacturer's instructions and sample phospho-AXL concentrations were extrapolated using human phospho-AXL control (R&D Systems #841645) as a standard. Positive control wells (100% activity) contained Gas6-stimulated, DMSO-treated cell lysates. Negative control wells (0% activity) contained Gas6-stimulated, reference inhibitor-treated cell lysates. IC50 values were calculated by nonlinear regression analysis using a 4-parameter logistic curve fit in ActivityBase XE (IDBS).
On the technique in general: ELISA stands for enzyme-linked immunosorbent assay.

A further data set deals with T2, KDR (Homo sapiens, UniProt P35968).
T2 construct: host or cells: HUVEC (human umbilical vein endothelial cells)
T2 sequence (P35968 20-1356): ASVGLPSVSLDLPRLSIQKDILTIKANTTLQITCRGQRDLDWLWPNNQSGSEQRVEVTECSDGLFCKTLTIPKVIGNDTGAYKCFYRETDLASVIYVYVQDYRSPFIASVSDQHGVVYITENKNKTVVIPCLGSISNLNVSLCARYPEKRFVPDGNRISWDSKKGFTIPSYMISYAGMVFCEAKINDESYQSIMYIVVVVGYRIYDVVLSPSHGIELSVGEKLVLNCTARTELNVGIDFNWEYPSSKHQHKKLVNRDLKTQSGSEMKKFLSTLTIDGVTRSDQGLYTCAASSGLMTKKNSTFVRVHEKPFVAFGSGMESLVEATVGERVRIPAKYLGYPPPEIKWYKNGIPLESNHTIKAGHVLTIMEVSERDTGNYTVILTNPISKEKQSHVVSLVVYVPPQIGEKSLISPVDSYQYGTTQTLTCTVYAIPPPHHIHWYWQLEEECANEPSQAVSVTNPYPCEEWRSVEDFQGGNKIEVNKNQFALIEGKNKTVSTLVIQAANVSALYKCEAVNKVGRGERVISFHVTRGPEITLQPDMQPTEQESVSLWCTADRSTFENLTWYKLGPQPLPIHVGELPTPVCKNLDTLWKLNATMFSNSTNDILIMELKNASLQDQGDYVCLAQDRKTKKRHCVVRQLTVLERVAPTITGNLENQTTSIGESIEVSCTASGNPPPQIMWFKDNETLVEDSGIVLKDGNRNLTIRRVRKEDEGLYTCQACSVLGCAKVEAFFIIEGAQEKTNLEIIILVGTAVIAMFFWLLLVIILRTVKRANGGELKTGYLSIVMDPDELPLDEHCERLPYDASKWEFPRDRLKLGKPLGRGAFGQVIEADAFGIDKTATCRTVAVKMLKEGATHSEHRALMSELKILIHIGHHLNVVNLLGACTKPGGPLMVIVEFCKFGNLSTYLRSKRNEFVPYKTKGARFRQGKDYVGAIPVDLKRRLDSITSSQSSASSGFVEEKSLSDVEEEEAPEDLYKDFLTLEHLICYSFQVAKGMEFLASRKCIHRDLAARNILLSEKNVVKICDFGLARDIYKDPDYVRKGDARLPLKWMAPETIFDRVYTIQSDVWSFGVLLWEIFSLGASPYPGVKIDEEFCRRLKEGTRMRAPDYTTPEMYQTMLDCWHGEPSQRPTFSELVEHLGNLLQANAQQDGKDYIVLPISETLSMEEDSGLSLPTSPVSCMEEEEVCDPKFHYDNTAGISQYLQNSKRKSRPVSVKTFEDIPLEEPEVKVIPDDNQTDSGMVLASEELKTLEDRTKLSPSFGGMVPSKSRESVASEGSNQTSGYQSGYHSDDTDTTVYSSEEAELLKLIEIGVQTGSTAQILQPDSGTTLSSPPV
The experiment in a line: KDR autophosphorylation ELISA in HUVEC cells. Type of data set: cell-based. Conditions: VEGF165-stimulated, phospho-KDR ELISA, 1 h compound incubation. On the procedure: Example C: KDR Autophosphorylation ELISA in HUVEC Cells
umbilical vein endothelial cells or HUVEC (Lonza #C2519A) were seeded at 2×10^4 cells/well onto 96-well plates (Corning #3904), in EGM-2 growth medium (Lonza #CC-3162) containing 1% Penicillin Streptomycin (Thermo Fisher #15140-122). HUVEC cells were incubated at 37° C., 5% CO2 for 24 h and then starved for 24 h in serum-free EBM-2 basal medium (Lonza #CC-3156) containing 1% Penicillin Streptomycin. Test compounds were serially diluted to produce an 8-point dose curve in fresh serum-free medium to a final concentration of 0.3% DMSO (vehicle) and added to the cells and incubated for 1 h. Cells were then stimulated with 100 ng/mL recombinant human VEGF165 (R&D Systems #293-VE-500) for 5 min, washed with cold PBS, and immediately lysed with 130 μL of cold IX lysis buffer [20 mM Tris, 137 mM sodium chloride, 2 mM EDTA, 10% glycerol, 1% NP-40 alternative, 1 mM activated sodium orthovanadate, 1 mM PefaBloc SC (Sigma-Aldrich #11429868001), protease/phosphatase inhibitor tablet (Thermo Fisher #A32959)]. Lysates were collected and 100 μL/well added into the human phospho-KDR DuoSet IC ELISA (R&D Systems #DYC 1766-2). Assay was performed according to manufacturer's instructions and sample phospho-KDR concentrations were extrapolated using human phospho-KDR control (R&D Systems #841421) as a standard. Positive control wells (100% activity) contained VEGF165-stimulated, DMSO-treated cell lysates. Negative control wells (0% activity) contained non-stimulated cell lysates. IC50 values were calculated by nonlinear regression analysis using a 4-parameter logistic curve fit in ActivityBase XE (IDBS).

Data set [1] is described as follows: Microsomal assay, rat liver microsome stability. Conditions: liver microsomes, pH 7.4. In general terms: Liver microsomes are a subcellular fraction often used to study metabolism.
Protocol: (§1) Liver microsomes tissue fractions were used for in vitro assessment of metabolic stability of compounds by cytochrome P450 (CYP450) (for example, CYP3A4, CYP2C9) mediated phase I oxidation, and metabolism through other pathways. Human, mouse, rat, and dog liver microsomes tissue fractions were obtained from Corning Gentest and BioreclamationIVT.
(§2) The assay was carried out in 96-well microtiter plates. Compounds were incubated (N=l) at 37° C. in the presence of liver microsomes. Reaction mixtures (25 μL) contained a final concentration of 1 μM test compound, 0.5 mg/mL liver microsomes (LM) protein, and 1 mM NADPH in 100 mM potassium phosphate, pH 7.4 buffer with 3.3 mM MgCl2. The extent of metabolism was calculated as the disappearance of the test compound, compared to the 0-min control reaction incubations. Verapamil was included as a positive control to verily assay performance.
(§3) At each of the four time points, 150 μL of quench solution (100% acetonitrile with 0.1% formic acid) with internal standard (bucetin for positive ESI mode) was transferred to each well. Plates were sealed and centrifuged at 10° C. for 15 minutes at 4000 rpm. The supernatant was transferred to fresh plates for LC/MS/MS analysis.
(§4) All samples were analyzed on LC/MS/MS using an AB Sciex API 4000 instrument, coupled to a Shimadzu LC-20AD LC Pump system. Analytical samples were separated using a Waters Atlantis T3 dC18 reverse phase HPLC column (20 mm×2.1 mm) at a flow rate of 0.5 mL/min. The mobile phase consisted of 0.1% formic acid in water (solvent A) and 0.1% formic acid in 100% acetonitrile (solvent B).
Data set [2] in a line: Microsomal assay, human liver microsome stability. Conditions: liver microsomes, pH 7.4.
Protocol: as §1, §2, §3, §4
Data set [3] is described as follows: Microsomal assay, mouse liver microsome stability. Particulars: liver microsomes, pH 7.4.
Protocol: as §1, §2, §3, §4

For orientation: IC50 means the concentration that inhibits the measured activity by half. Usually half-life stands for how long it takes for the measured level to halve. Regarding `COc1cc2nccc(Oc3ccc(NC(=O)C4(C(=O)N(C)c5ccc(F)cc5)CC4)cc3)c2cc1OC` [Compound 9, 1-N-[4-(6,7-Dimethoxyquinolin-4-yl)oxyphenyl]-1-N′-(4-fluorophenyl)-1-N′-methylcyclopropane-1,1-dicarboxamide], the IC50 against AXL and against KDR was > 300 nM each time. Moreover, the results for the half-life at 1 μM in data set [1], in data set [2] and in data set [3] were 1.4 min, 1.4 min and 3.1 min, respectively.

Turning to `COc1cc2nccc(Oc3ccc(NC(=O)C4(C(=O)N(C)c5ccc(F)cc5)CC4)cc3F)c2cc1OC` [Compound 10, N-(4-((6,7-Dimethoxyquinolin-4-yl)oxy)-3-fluorophenyl)-N-(4-fluorophenyl)-N-methylcyclopropane-1,1-dicarboxamide], the IC50 against AXL and on KDR was > 300 nM in each case. The half-life at 1 μM was determined as 1.3 min in data set [1], 1.3 min in data set [2] and 4.1 min in data set [3].

`CNC(=O)c1cc2c(Oc3ncc(NC(=O)C4(C(=O)N(C)c5ccc(F)cc5)CC4)cc3F)ccnc2cc1OC` [Compound 34, 1-N-[5-Fluoro-6-[7-methoxy-6-(methylcarbamoyl)quinolin-4-yl]oxypyridin-3-yl]-1-N′-(4-fluorophenyl)-1-N′-methylcyclopropane-1,1-dicarboxamide]: the IC50 at AXL and on KDR was > 300 nM throughout. The half-life at 1 μM was 1.3 min in data set [1], 1.3 min in data set [2] and 2.6 min in data set [3].

With `COc1cc2nccc(Oc3ncc(NC(=O)C4(C(=O)N(C)c5ccc(F)cc5)CC4)cc3F)c2cc1C(N)=O` [Compound 35, 1-N-[6-(6-Carbamoyl-7-methoxyquinolin-4-yl)oxy-5-fluoropyridin-3-yl]-1-N′-(4-fluorophenyl)-1-N′-methylcyclopropane-1,1-dicarboxamide], the concentration for half-maximal inhibition (IC50) at AXL and at KDR was > 300 nM each time. Moreover, the half-life at 1 μM in data set [1] stood at 1.2 min; in data set [2], 1.3 min; in data set [3], 1.9 min.

Turning to `COc1cc2nccc(Oc3ccc(N(C)C(=O)C4(C(=O)Nc5ccc(F)cc5)CC4)cc3F)c2cc1OC` [Compound 51, 1-N′-[4-(6,7-Dimethoxyquinolin-4-yl)oxy-3-fluorophenyl]-1-N-(4-fluorophenyl)-1-N′-methylcyclopropane-1,1-dicarboxamide], the IC50 on AXL is > 300 nM. For the same compound, the results for the half-life at 1 μM in data set [1], in data set [2] and in data set [3] were 14.3 min, 29.7 min and 9.6 min, respectively.
